Assay results: patent US10815238B2, “Antimicrobial compounds and methods of making and using the same” (BIOVERSYS AG, priority 2013, dated 2020)

What follows are compounds tested on Eschericia coli (E. coli) strain ATCC25922 (assay: Standard microdilution assay, MIC against E. coli ATCC25922). Conditions: Escherichia coli; E. coli strain ATCC25922, standard microdilution assay; cutoff 16 micrograms/mL; read-out: MIC E. Coli.
Format: cell-based
Procedure: The in vitro activity of the compounds of the present invention can be determined. Antimicrobial testing is typically performed to determine the minimum inhibitory concentration (MIC). Minimum inhibitory concentrations (MICs) are determined by the microdilution method in a final volume of 100 μl according to protocols outlined by The Clinical and Laboratory Standards Institute (CLSI). Performance standards for reference strains are assessed within the same experimental design to maintain quality control. See, for example, Clinical Laboratory Standards Institute: Methods for dilution antimicrobial susceptibility tests for bacteria that grow aerobically M7-A8. Approved Standard-Eighth Edition. Wayne, Pa.: CLSI; December 2008; and Clinical Laboratory Standards Institute: Performance Standards for Antimicrobial Susceptibility Testing M100-S20; Approved Standard-Twentieth Edition. Wayne, Pa.: CLSI; June 2010.
The compounds of the present invention were tested for antimicrobial activity. The Compounds 1-582 were run against Eschericia coli (E. coli) strain ATCC25922 and Compounds 320-582 were run against Staphylococcus aureus (S. aureus) 11540 strain using a standard microdilution assay to determine minimum inhibitory concentrations (MICs). […] It will be recognized by one skilled in the art that the compounds can be assessed against other bacterial organisms and that the presentation of data for activity against Eschericia coli and Staphylococcus aureus are illustrative and in no way is intended to limit the scope of the present invention. The compounds of the present invention can be assayed against a range of other microorganisms depending upon the performance activity desired to be gathered. Furthermore, the “+” and “−” representation and the selection of a cutoff value of 16 micrograms/mL is also illustrative and in no way is intended to limit the scope of the present invention.

SMILES | MIC
C[C@H](N)CCCc1cc(-c2cc3cn(-c4ccc([C@@H](CO)NCCCNC(=N)N)cc4)c(=O)nc3[nH]2)cc(C(F)(F)F)c1 [Compound 51] | < 16 µg/mL
C[C@H](N)CCCc1cc(SC(F)(F)F)cc(-c2cc3cn(-c4ccc([C@@H](NCCCNC(=N)N)C(=O)N5CCNCC5)cc4)c(=O)nc3[nH]2)c1 [Compound 14] | < 16 µg/mL
CSC[C@@H](CCN[C@@H](C)c1ccc(-n2cc3cc(-c4cc(CCC[C@H](C)N)cc(Cl)c4F)[nH]c3nc2=O)cc1)NC(=N)N [Compound 287] | < 16 µg/mL
C=C[C@H](CCNCc1ccc(-n2cc3cc(-c4cc(CCC[C@H](C)N)cc(OC(F)(F)F)c4F)[nH]c3nc2=O)cc1)NC(=N)N [Compound 238] | < 16 µg/mL
CCOC(=O)N[C@@H](C)CCCc1cc(-c2cn3cc(-c4ccc([C@H](C)NCCCNC(=N)N)cc4)c(=O)nc3[nH]2)cc(C(F)(F)F)c1 [Compound 299] | < 16 µg/mL
COC[C@H](N)CCNCc1ccc(-n2cc3cc(-c4cc(CCC[C@H](C)N)cc(Cl)c4F)[nH]c3nc2=O)cc1 [Compound 178] | < 16 µg/mL
C[C@H](NCCCNC(=N)N)c1ccc(-n2cc3cc(-c4cc(CCC[C@@H]5COC(=O)N5)cc(Cl)c4F)[nH]c3nc2=O)cc1 [Compound 296] | > 16 µg/mL
C[C@H](N)CCCc1cc(SC(F)(F)F)cc(-c2cc3cn(-c4ccc(CNCCC(C)(C)N)cc4)c(=O)nc3[nH]2)c1 [Compound 176] | < 16 µg/mL
C[C@H](N)CCCc1cc(Cl)c(F)c(-c2cc3cn(-c4ccc([C@H](C)N[C@H](CCO)CCNC(=N)N)cc4)c(=O)nc3[nH]2)c1 [Compound 291] | < 16 µg/mL
C[C@H](N)CCCc1cc(Cl)c(F)c(-c2cc3cn(-c4ccc([C@@H](N)CCNc5nccs5)cc4)c(=O)nc3[nH]2)c1 [Compound 153] | > 16 µg/mL
C[C@H](N)CCCc1cc(SC(F)(F)F)cc(-c2cc3cn(-c4ccc([C@@H](NCCCNC(=N)N)c5ccc(O)cc5)cc4)c(=O)nc3[nH]2)c1 [Compound 25] | < 16 µg/mL
CC(=O)OC[C@H](N)CCCc1cc(Cl)c(F)c(-c2cc3cn(-c4ccc([C@H](C)NCCCNC(=N)N)cc4)c(=O)nc3[nH]2)c1 [Compound 295] | < 16 µg/mL
C[C@H](N)CCCc1cc(Cl)c(F)c(-c2cc3cn(-c4ccc([C@H](C)N[C@@H](CCO)CCNC(=N)N)cc4)c(=O)nc3[nH]2)c1 [Compound 303] | < 16 µg/mL
CC[C@H](CCNCc1ccc(-n2cc3cc(-c4cc(CCC[C@H](C)N)cc(Cl)c4F)[nH]c3nc2=O)cc1)NC(=N)N [Compound 198] | < 16 µg/mL
COCC[C@H](NCCCNC(=N)N)c1ccc(-n2cc3cc(-c4cc(CCC[C@H](C)N)cc(C(F)(F)F)c4)[nH]c3nc2=O)cc1 [Compound 28] | < 16 µg/mL
C[C@H](N)CCCc1cc(SC(F)(F)F)cc(-c2cc3cn(-c4ccc([C@H](N)CCCCNC(=N)N)cc4)c(=O)nc3[nH]2)c1 [Compound 93] | < 16 µg/mL
C[C@H](N)CCCc1cc(OC(F)(F)F)c(F)c(-c2cc3cn(-c4ccc([C@H](C)NCC[C@H](CCCO)NC(=N)N)cc4)c(=O)nc3[nH]2)c1 [Compound 276] | < 16 µg/mL
C[C@H](N)CCCc1cc(Cl)c(F)c(-c2cc3cn(-c4ccc(CN)cc4)c(=O)nc3[nH]2)c1 [Compound 136] | > 16 µg/mL
C[C@H](N)CCCc1cc(Cl)c(F)c(-c2cc3cn(-c4ccc(CNCc5c[nH]nn5)cc4)c(=O)nc3[nH]2)c1 [Compound 119] | > 16 µg/mL
C[C@H](N)CCCc1cc(Cl)c(F)c(-c2cc3cn(-c4ccc(CNCC[C@@H](N)CO)cc4)c(=O)nc3[nH]2)c1 [Compound 167] | < 16 µg/mL
C[C@H](N)CCCc1cc(SC(F)(F)F)cc(-c2cc3cn(-c4ccc([C@@H](CF)NCCCNC(=N)N)cc4)c(=O)nc3[nH]2)c1 [Compound 96] | < 16 µg/mL
C=CC[C@H](CCN[C@@H](C)c1ccc(-n2cc3cc(-c4cc(CCC[C@H](C)N)cc(OC(F)(F)F)c4F)[nH]c3nc2=O)cc1)NC(=N)N [Compound 260] | < 16 µg/mL
O=c1nc2[nH]ccc2cn1-c1ccc(CNCc2c[nH]nn2)cc1 [Compound 129] | > 16 µg/mL
C[C@H](N)CCCc1cc(Cl)c(F)c(-c2cc3cn(-c4ccc([C@H](C)NCCCN)cc4)c(=O)nc3[nH]2)c1 [Compound 107] | < 16 µg/mL

Other lines, results leading:

MIC | SMILES
< 16 µg/mL | C[C@H](N)CCCc1cc(-c2cc3cn(-c4ccc([C@@H](NCCCNC(=N)N)C(N)=O)cc4)c(=O)nc3[nH]2)cc(C(F)(F)F)c1 [Compound 59]
> 16 µg/mL | CCOC(=N)CNCc1ccc(-n2cc3cc(-c4cc(CCC[C@H](C)N)cc(Cl)c4F)[nH]c3nc2=O)cc1 [Compound 166]
< 16 µg/mL | C[C@H](N)CCCc1cc(Cl)c(F)c(-c2cc3cn(-c4ccc([C@H](Cc5c[nH]nn5)NCCCNC(=N)N)cc4)c(=O)nc3[nH]2)c1 [Compound 46]
< 16 µg/mL | C[C@H](NCCCNC(=N)N)c1ccc(-n2cc3cc(-c4cc(CCC[C@@H](N)CO)cc(SC(F)(F)F)c4)[nH]c3nc2=O)cc1 [Compound 31]
< 16 µg/mL | C=CCN(CCCN[C@@H](C)c1ccc(-n2cc3cc(-c4cc(CCC[C@H](C)N)cc(Cl)c4F)[nH]c3nc2=O)cc1)C(=N)N [Compound 212]
> 16 µg/mL | COc1ccc(Cn2cc(CNCc3ccc(-n4cc5cc(-c6cc(CCC[C@H](C)N)cc(SC(F)(F)F)c6)[nH]c5nc4=O)cc3)nn2)cc1 [Compound 122]
< 16 µg/mL | C[C@H](N)CCCc1cc(-c2cc3cn(-c4ccc([C@@H](CCN)NCCCNC(=N)N)cc4)c(=O)nc3[nH]2)cc(C(F)(F)F)c1 [Compound 6]
< 16 µg/mL | C=C[C@@H](CCNCc1ccc(-n2cc3cc(-c4cc(CCC[C@H](C)N)cc(Cl)c4F)[nH]c3nc2=O)cc1)NC(=N)N [Compound 177]
> 16 µg/mL | C[C@H](N)CCCc1cc(Cl)c(F)c(-c2cc3cn(-c4ccc(CNCc5cccnc5)cc4)c(=O)nc3[nH]2)c1 [Compound 112]
< 16 µg/mL | C[C@H](N)CCCc1cc(Cl)c(F)c(-c2cc3cn(-c4ccc([C@@H](NCCCNC(=N)N)C5CC5)cc4)c(=O)nc3[nH]2)c1 [Compound 102]
> 16 µg/mL | COc1ccc(Cn2cc(CNCc3ccc(-n4cc5cc[nH]c5nc4=O)cc3)nn2)cc1 [Compound 131]
< 16 µg/mL | C[C@H](N)CCCc1cc(Cl)c(F)c(-c2cc3cn(-c4ccc([C@@H](NCCCNC(=N)N)c5ccc(S(C)(=O)=O)cc5)cc4)c(=O)nc3[nH]2)c1 [Compound 39]
< 16 µg/mL | C[C@H](N)CCCc1cc(Cl)c(F)c(-c2cc3cn(-c4ccc([C@H](CCN)NCCCNC(=N)N)cc4)c(=O)nc3[nH]2)c1 [Compound 19]
< 16 µg/mL | C[C@H](N)CCCc1cc(Cl)c(F)c(-c2cc3cn(-c4ccc(CN[C@@H](C)CCN)cc4)c(=O)nc3[nH]2)c1 [Compound 196]
< 16 µg/mL | C=CC[C@H](N)CCNCc1ccc(-n2cc3cc(-c4cc(CCC[C@H](C)N)cc(Cl)c4F)[nH]c3nc2=O)cc1 [Compound 201]
< 16 µg/mL | C[C@H](N)CCCc1cc(SC(F)(F)F)cc(-c2cc3cn(-c4ccc([C@@H](NCCCNC(=N)N)c5cccnc5)cc4)c(=O)nc3[nH]2)c1 [Compound 66]
> 16 µg/mL | CC(=O)N[C@@H](C)CCCc1cc(Cl)c(F)c(-c2cc3cn(-c4ccc([C@H](C)NCCCNC(=N)N)cc4)c(=O)nc3[nH]2)c1 [Compound 76]
< 16 µg/mL | C=CCNCCCN[C@@H](C)c1ccc(-n2cc3cc(-c4cc(CCC[C@H](C)N)cc(C(F)(F)F)c4)[nH]c3nc2=O)cc1 [Compound 216]
< 16 µg/mL | C[C@H](N)CCCc1cc(Cl)c(F)c(-c2cc3cn(-c4ccc([C@H](C)NCC[C@@H](C)NC(=N)N)cc4)c(=O)nc3[nH]2)c1 [Compound 194]
< 16 µg/mL | C[C@H](N)CCCc1cc(SC(F)(F)F)cc(-c2cc3cn(-c4ccc([C@H](CO)NCCCNC(=N)N)cc4)c(=O)nc3[nH]2)c1 [Compound 104]
> 16 µg/mL | O=c1nc2[nH]ccc2cn1-c1ccc(CNCc2ccncc2)cc1 [Compound 126]
< 16 µg/mL | C[C@H](N)CCCc1cc(SC(F)(F)F)cc(-c2cc3cn(-c4ccc([C@@H](NCCCNC(=N)N)c5ccc(S(C)(=O)=O)cc5)cc4)c(=O)nc3[nH]2)c1 [Compound 40]
< 16 µg/mL | C[C@H](N)CCCc1cc(-c2cc3cn(-c4ccc([C@H](C)NCCCNC(=N)N)cc4)c(=O)nc3[nH]2)c(F)cc1Cl [Compound 10]
< 16 µg/mL | C[C@H](N)CCCc1cc(Cl)c(F)c(-c2cc3cn(-c4ccc(CNCCC5(N)CNC5)cc4)c(=O)nc3[nH]2)c1 [Compound 189]
< 16 µg/mL | C[C@H](N)CCCc1cc(OC(F)(F)F)c(F)c(-c2cc3cn(-c4ccc([C@H](C)N[C@@H](C)CCNC(=N)N)cc4)c(=O)nc3[nH]2)c1 [Compound 232]
< 16 µg/mL | C[C@H](N)CCCc1cc(Cl)c(F)c(-c2cc3cn(-c4ccc([C@H](C)NCC[C@@H](CN)NC(=N)N)cc4)c(=O)nc3[nH]2)c1 [Compound 271]
< 16 µg/mL | C[C@H](N)CCCc1cc(Cl)c(F)c(-c2cc3cn(-c4ccc([C@H](C)NCC[C@H](Cn5cc(CN)nn5)NC(=N)N)cc4)c(=O)nc3[nH]2)c1 [Compound 301]
< 16 µg/mL | C=CC[C@H](NCCCNC(=N)N)c1ccc(-n2cc3cc(-c4cc(CCC[C@H](C)N)cc(SC(F)(F)F)c4)[nH]c3nc2=O)cc1 [Compound 11]
